The record followed here is patent publication US20240423914A1, “AMIDE CONTAINING LIPIDS” (Acuitas Therapeutics, Inc., priority 2023, published 2024).

The assay has as its system human IgG in mouse serum. The assay can be described thus: Immunoglobulin G (IgG) mRNA in vivo evaluation using lipid nanoparticle compositions (human IgG ELISA of mouse serum). Details: species or system CD-1/ICR mice. Particulars: lipid formulated as LNP (cationic lipid/DSPC/cholesterol/PEG lipid) with IgG mRNA, tail vein injection, mice, serum measured 24 hours after administration; for Serum IgG (ug/mL) @ 0.3 mg/kg: 0.3 mg mRNA/kg; for Serum IgG (ug/mL) @ 1.0 mg/kg: 1.0 mg mRNA/kg. As for the experimental part:
A lipid of Formula (I), DSPC, cholesterol and PEG-lipid of Formula (II) are solubilized in ethanol at a molar ratio of 50:10:38.5:1.5 or 47.5:10:40.7:1.8. Lipid nanoparticles (LNP) are prepared at a total lipid to mRNA weight ratio of approximately 10:1 to 40:1. Briefly, the mRNA is diluted to 0.2 mg/mL in 10 to 50 mM citrate buffer, pH 4 to 6 or 10 to 25 mM acetate buffer, pH 4 to 6. Syringe pumps are used to mix the ethanolic lipid solution with the mRNA aqueous solution at a ratio of about 1:5 to 1:3 (vol/vol) with total flow rates above 15 mL/min. The ethanol is then removed, and the external buffer replaced with PBS by dialysis. Finally, the lipid nanoparticles are filtered through a 0.2 μm pore sterile filter.
Studies are performed in 6-8-week-old CD-1/ICR mice (Charles River or Inotiv) according to guidelines established by an institutional animal care committee (ACC) and the Canadian Council on Animal Care (CCAC). Varying doses of mRNA-lipid nanoparticle are systemically administered by tail vein injection and animals euthanized at a specific time point (e.g., 24 hours) post-administration. The whole blood is collected, and the serum subsequentially separated by centrifuging the tubes of the whole blood at 2000×g for 10 minutes at 4° C. and stored at −80° C. until use for analysis.
For immunoglobulin G (IgG) ELISA (Life Diagnostics Human IgG ELISA kit), the serum samples are diluted at 100 to 20,000 fold with 1× diluent solution. 100 μL of diluted serum is dispensed into anti-human IgG coated 96-well plate in duplicate alongside human IgG standards and incubated in a plate shaker at 150 rpm at 25° C. for 45 minutes. The wells are washed 5 times with 1× wash solution using a plate washer (400 μL/well). 100 μL of HRP conjugate is added into each well and incubated in a plate shaker at the same condition above. The wells are washed 5 times again with 1× wash solution using a plate washer (400 μL/well). 100 μL of TMB reagent is added into each well and incubated in a plate shaker at the same condition above. The reaction is stopped by adding 100 μL of Stop solution to each well. The absorbance is read at 450 nm (A450) with a microplate reader. The amount of human IgG in mouse serum is determined by plotting A450 values for the assay standard against human IgG concentration.
Representative compounds of the disclosure shown in Table 2 were formulated using the following molar ratio: 50% cationic lipid/10% distearoylphosphatidylcholine (DSPC)/38.5% Cholesterol/1.5% PEG lipid 2-[2-(ω-methoxy(polyethyleneglycol2000)ethoxy]-N,N-ditetradecylacetamide) or 47.5% cationic lipid/10% DSPC/40.7% Cholesterol/1.8% PEG lipid. Relative activity was determined by measuring the amount of human IgG in mouse serum as described in Example 2. The activity was compared at a dose of 1.0 or 0.3 mg mRNA/kg and expressed as ng luciferase/g liver measured 4 hours after administration, as described in Example 1 or as μg IgG/mL serum measured 24 hours after administration, as described in Example 2. Compound numbers in Table 2 refer to the compound numbers of Table 1.
In general terms: ELISA stands for enzyme-linked immunosorbent assay.

As to `CCCCCCCCCCN(CCCCCCCCCC)C(=O)CCCCCCCCC(CCCCCCCCC(=O)N(CCCCCCCCCC)CCCCCCCCCC)OC(=O)CCCN(C)C` [Compound I-10, 1,19-bis(didecylamino)-1,19-dioxononadecan-10-yl 4-(dimethylamino)butanoate], the “Serum IgG (ug/mL) @ 0.3 mg/kg” value amounted to 19.0 ± 3.3 µg/mL.

As for `CCCCCCCCCCN(CCCCCCCCCC)C(=O)CCCCCCCN(CCCCCCCC(=O)N(CCCCCCCCCC)CCCCCCCCCC)C(=O)OCCN(C)C` [Compound I-6, 2-(dimethylamino)ethyl bis(8-(didecylamino)-8-oxooctyl)carbamate], the “Serum IgG (ug/mL) @ 0.3 mg/kg” value was 20.5 ± 4.0 µg/mL and the “Serum IgG (ug/mL) @ 1.0 mg/kg” value is 197.5 ± 39.3 µg/mL.

In the case of `CCCCCCCCCCCCN(CCCCCCCCCCN(CCCCCCCCCCN(CCCCCCCCCCCC)C(=O)CCCCCCC)C(=O)OCCCN1CCCC1)C(=O)CCCCCCC` [Compound I-20, 3-(pyrrolidin-1-yl)propyl bis(10-(n-dodecyloctanamido)decyl)carbamate], the “Serum IgG (ug/mL) @ 0.3 mg/kg” value was found to be 7.9 ± 3.6 µg/mL.

For `CCCCCCCCCCN(CCCCCCCCCC)C(=O)CCCCCCCCC(CCCCCCCCC(=O)N(CCCCCCCCCC)CCCCCCCCCC)N(CCCCCCCCCC)C(=O)C(F)CCCN(C)C` (stereo not shown) [Compound I-12, N^1,N^1,N^19,N^19-tetrakis(decyl)-10-(n-decyl-5-(dimethylamino)-2-fluoropentanamido)nonadecanediamide], the “Serum IgG (ug/mL) @ 0.3 mg/kg” value was 13.9 ± 4.7 µg/mL.

Regarding `CCCCCCCCCCN(CCCCCCCCCC)C(=O)CCCCCCCN(CCCCCCCC(=O)N(CCCCCCCCCC)CCCCCCCCCC)C(=O)CN(C)C` [Compound I-4, N,N-didecyl-8-(N-(8-(didecylamino)-8-oxooctyl)-2-(dimethylamino)acetamido)octanamide], the “Serum IgG (ug/mL) @ 0.3 mg/kg” value worked out at 24.2 ± 4.5 µg/mL.

With `CCCCCCCCCCN(CCCCCCCCCC)C(=O)CCCCCCCCCN(CCCCCCCCCC(=O)N(CCCCCCCCCC)CCCCCCCCCC)C(=O)OCCCN(C)C` [Compound I-8, 3-(dimethylamino)propyl bis(10-(didecylamino)-10-oxodecyl)carbamate], the “Serum IgG (ug/mL) @ 0.3 mg/kg” value was 10.6 ± 5.0 µg/mL.

Turning to `CCCCCCCCCCN(CCCCCCCCCC)C(=O)CCCCCCCCC(CCCCCCCCC(=O)N(CCCCCCCCCC)CCCCCCCCCC)OC(=O)CCCCN(C)C` [Compound I-9, 1,19-bis(didecylamino)-1,19-dioxononadecan-10-yl 5-(dimethylamino)pentanoate], the “Serum IgG (ug/mL) @ 0.3 mg/kg” value is 13.4 ± 7.5 µg/mL and the “Serum IgG (ug/mL) @ 1.0 mg/kg” value amounted to 59.5 ± 25.6 µg/mL.

Consider `CCCCCCCCCCN(CCCCCCCCN(CCCCCCCC(=O)N(CCCCCCCCCC)CCCCCCCCCC)C(=O)CN(C)C)C(=O)CCCCCCCCC` [Compound I-5, N-decyl-N-(8-(N-(8-(didecylamino)-8-oxooctyl)-2-(dimethylamino)acetamido)octyl)decanamide], for which the “Serum IgG (ug/mL) @ 0.3 mg/kg” value amounted to 25.9 ± 11.8 µg/mL and the “Serum IgG (ug/mL) @ 1.0 mg/kg” value was found to be 73.4 ± 14.9 µg/mL.

For the compound `CCCCCCCCCCN(CCCCCCCCCC)C(=O)CCCCCCCCC(CCCCCCCCC(=O)N(CCCC)C(CCCCCCCC)CCCCCCCC)N(CCCCCCCCCC)C(=O)CCN(C)C` (stereo not shown) [Compound I-17, N^1-butyl-N^19,N^19-didecyl-10-(n-decyl-3-(dimethylamino)propanamido)-N-(heptadecan-9-yl)nonadecanediamide], the “Serum IgG (ug/mL) @ 0.3 mg/kg” value stood at 10.1 ± 4.03 µg/mL.

Consider `CCCCCCCCCCN(CCCCCCCCN(CCCCCCCC(=O)N(CCCCCCCCCC)CCCCCCCCCC)C(=O)C(F)CCN(C)C)C(=O)CCCCCCCCC` (stereo not shown) [Compound I-3, N-decyl-N-(8-(N-(8-(didecylamino)-8-oxooctyl)-4-(dimethylamino)-2-fluorobutanamido)octyl)decanamide], for which the “Serum IgG (ug/mL) @ 0.3 mg/kg” value stood at 16.2 ± 4.3 µg/mL and the “Serum IgG (ug/mL) @ 1.0 mg/kg” value came out at 52.7 ± 8.4 µg/mL.

For the compound `CCCCCCCCCCN(CCCCCCCCCC)C(=O)CCCCCCCCC(CCCCCCCCC(=O)N(CCCCCCCCCC)CCCCCCCCCC)N(CCCCCCCCCC)C(=O)CCN(C)C` [Compound I-1, N^1,N^1,N^19,N^19-tetrakis(decyl)-10-(N-decyl-3-(dimethylamino)propanamido)nonadecanediamide], the “Serum IgG (ug/mL) @ 0.3 mg/kg” value turned out to be 18.5 ± 6.7 µg/mL.

For `CCCCCCCCCCN(CCCCCCCCCC)C(=O)CCCCCCCN(CCCCCCCC(=O)N(CCCCCCCCCC)CCCCCCCCCC)C(=O)OCCCN(C)C` [Compound I-7, 3-(dimethylamino)propyl bis(8-(didecylamino)-8-oxooctyl)carbamate], the “Serum IgG (ug/mL) @ 0.3 mg/kg” value came to 30.8 ± 7.5 µg/mL.

Take `CCCCCCCCCCN(CCCCCCCCCC)C(=O)CCCCCCCN(CCCCCCCC(=O)N(CCCCCCCCCC)CCCCCCCCCC)C(=O)C(F)CCN(C)C` (stereo not shown) [Compound I-2, N,N-didecyl-8-(N-(8-(didecylamino)-8-oxooctyl)-4-(dimethylamino)-2-fluorobutanamido)octanamide]: the “Serum IgG (ug/mL) @ 0.3 mg/kg” value is 23.2 ± 6.1 µg/mL and the “Serum IgG (ug/mL) @ 1.0 mg/kg” value was 69.8 ± 18.2 µg/mL.

Consider `CCCCCCCCCCN(CCCCCCCCCC)C(=O)CCCCCC(CCCCCC(=O)N(CCCCCCCCCC)CCCCCCCCCC)OC(=O)CCCN(C)C` [Compound I-18, 1,13-bis(didecylamino)-1,13-dioxotridecan-7-yl 4-(dimethylamino)butanoate], for which the “Serum IgG (ug/mL) @ 0.3 mg/kg” value came out at 18.0 ± 2.0 µg/mL.
